Test results published in patent US11253589B2, “Modulation of the immune response” (priority 2007, dated 2022).
Entries after “also recorded” stand apart in the source; their conditions may differ.

Columns and labels:
C57BL/6 mice [1] = assay: EAE in recipient mice after transfer of CD4+ T cells from treated mice; assay type: in vivo, mouse
Source text: To identify the mechanism responsible for the decreased proliferation to MOG35-55 in TCDD-treated animals shown in FIG. 4D, the CD4^+CD25^+ Treg population was depleted with magnetic beads. […] The control of the pathogenic T cell response was mediated by CD4^+CD25^+ Treg, their depletion abrogated the protective effect of the transferred cells (P<0.001, two-way ANOVA, n=4; FIG. 5C).
To confirm that the protective effect of TCDD on EAE was Treg mediated we depleted the natural Treg with antibodies to CD25 prior to TCDD treatment. […] This protective effect was lost when CD4^+CD25^+ T cells were depleted, see FIG. 5h and Table 5.
The control of the pathogenic T cell response was mediated by CD4^+CD25^+ Treg, their depletion from the transferred population abrogated the protective effect of the transferred cells. Thus, the Treg induced by the activation of AHR with ITE inhibit the progression of EAE.

C57BL/6 mice [2] = assay: EAE induced by immunization with MOG35-55 in CFA; assay type: in vivo, mouse; set-up: EAE severity: dose or concentration left out as unconfirmed
[3] = test system: CD4+IL-17+ and CD4+IFNg+ T cells; assay: Frequency of CD4+IL-17+ and CD4+IFNg+ T cells by FACS; assay type: in vivo, mouse
Procedure: (§1) In addition, cells were stimulated in culture medium containing 100 μg/ml MOG35-55 for 2 days or with PMA (50 ng/ml) (Sigma-Aldrich) and ionomycin ([…]) (Calbiochem, San Diego, Calif., USA) for 4 hours, Golgistop (BD Biosciences) was added to the culture during the last 4 hours. After staining of surface markers, cells were fixed and permeabilized using Cytofix/Cytoperm and Perm/Wash buffer from BD Biosciences according to the manufacturer's instructions. All antibodies to cytokines (IFN-gamma, IL-17, IL-10) including the corresponding isotype controls were obtained from BD Biosciences. Cells were incubated (1:100) at 25° C. for 20 min and washed twice in Perm/Wash before analysis. Data were acquired on a FACSCalibur (BD Biosciences) and analyzed with FlowJo software (Tree Star, Ashland, Oreg., USA).
To confirm the suppressive effects of AHR activation on the generation of T cells secreting IFNg and IL17, IFNg^+ and IL17^+ CD4^+ T cells were quantified by FACS in the draining lymph nodes ten days after footpad immunization and intraperitoneal administration of ITE ([…]).

AHR = target: T1, AHR (Homo sapiens, UniProt P35869); details: cited from earlier work
T1 sequence (P35869 11-848): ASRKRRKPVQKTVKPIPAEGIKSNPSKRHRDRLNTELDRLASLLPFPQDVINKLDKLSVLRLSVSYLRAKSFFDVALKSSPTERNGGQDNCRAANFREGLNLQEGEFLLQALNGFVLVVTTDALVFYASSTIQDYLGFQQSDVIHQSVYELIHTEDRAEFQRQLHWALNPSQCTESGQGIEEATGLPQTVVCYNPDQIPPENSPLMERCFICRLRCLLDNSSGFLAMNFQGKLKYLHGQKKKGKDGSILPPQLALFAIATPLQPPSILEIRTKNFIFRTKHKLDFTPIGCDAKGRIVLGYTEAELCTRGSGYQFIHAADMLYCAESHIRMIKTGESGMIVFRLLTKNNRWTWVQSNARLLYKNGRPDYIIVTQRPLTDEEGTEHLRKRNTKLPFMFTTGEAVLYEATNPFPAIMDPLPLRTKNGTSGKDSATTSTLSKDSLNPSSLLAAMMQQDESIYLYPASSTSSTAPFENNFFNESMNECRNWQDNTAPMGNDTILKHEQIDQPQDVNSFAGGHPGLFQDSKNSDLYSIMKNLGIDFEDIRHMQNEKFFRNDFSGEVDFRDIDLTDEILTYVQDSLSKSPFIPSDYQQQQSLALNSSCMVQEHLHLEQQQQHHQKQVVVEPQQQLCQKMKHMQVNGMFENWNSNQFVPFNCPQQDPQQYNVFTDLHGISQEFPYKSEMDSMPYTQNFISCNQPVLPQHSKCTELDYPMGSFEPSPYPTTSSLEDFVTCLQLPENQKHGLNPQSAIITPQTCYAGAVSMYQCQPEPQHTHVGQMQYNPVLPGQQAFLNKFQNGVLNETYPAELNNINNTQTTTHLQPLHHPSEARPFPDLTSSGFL

myelin specific T cells = assay: Recall response (proliferation, cytokine secretion) to MOG35-55 or anti-CD3 of cells from treated mice; assay type: in vivo, mouse
Procedure: Cells were cultured in serum-free X-VIVO 20™ media (BioWhittaker, Walkersville, Md., USA) for 72 hours. During the last 16 hours, cells were pulsed with 1 μCi of [^3H]thymidine (PerkinElmer, Waltham, Mass., USA) followed by harvesting on glass fiber filters and analysis of incorporated [^3H]thymidine in a beta-counter (1450 Microbeta, Trilux, PerkinElmer). Alternatively, culture supernatants were collected […] activation and the cytokine concentration was determined by ELISA using antibodies for IFN-γ, IL-17, IL-4, IL-10 from BD Biosciences and antibodies to TGF-β from R&D Systems. For suppression assays, MACS purified CD4^+CD25^− T cells from naïve C57BL/6 mice (1-5×10^4 cells/well) were stimulated with antibodies to CD3 and C57BL/6 irradiated spleen cells (0.3-1.5×10^4 cells/well) for 3 days in the presence of different ratios of CD4^+ GFP^+ retrovirus-transduced T cells.
To further characterize the suppression of EAE by AHR activation we studied the activity of myelin specific T cells induced by vaccination with MOG35-55/CFA in TCDD-treated mice.
as §1
We then studied the effect of ITE administration on the encephalitogenic response against myelin. EAE was induced on naïve C57BL/6 mice and ITE ([…]) was administered orally or intraperitoneally on daily basis.

[4] = recipients of 5 × 10^6 CD4+ T cells from TCDD treated mice
[5] = recipients of 5 × 10^6 CD4+CD25- T cells from TCDD treated mice
[6] = C57BL/6 (WT) mice, TCDD 1 μg/mouse, Table 4
[7] = draining lymph nodes of TCDD-treated mice
[8] = cells purified from TCDD-treated Foxp3gfp mice
[9] = draining lymph node cells of TCDD-treated mice vs control
[10] = lymph node cells of TCDD-treated mice, 10 days after MOG35-55/CFA
[11] = ITE 200 μg/mouse daily, either orally or intraperitoneally
[12] = ITE 200 mg/mice intraperitoneal, draining lymph nodes ten days after footpad immunization
[13] = CD4+ T cells from ITE-treated mice vs control
[14] = ITE 200 mg/mice daily (FIG. 22: IP), splenocytes

## Clc1cc2c(cc1Cl)Oc1cc(Cl)c(Cl)cc1O2 [TCDD, 2,3,7,8 tetrachlorodibenzo-p-dioxin]
C57BL/6 mice [1]; [4]
  Mean day of onset (Mean ± SD): 13.3 ± 0.6 days
  Mean maximum score (mean ± SD): 0.7 ± 0.8
C57BL/6 mice [1]; [5]
  Mean day of onset (Mean ± SD): 11.0 ± 0.0 days
  Mean maximum score (mean ± SD): 2.6 ± 1.8
C57BL/6 mice [1]; transfer of 5×10^6 CD4+ T cells from TCDD-treated mice
  development of EAE: significantly inhibited the development of EAE
C57BL/6 mice [2]; AHR-ligand loaded nanoparticles, 45 femtomoles weekly starting at day 0
  EAE development: complete suppression of EAE
C57BL/6 mice [2]; [6]
  Mean day of onset (Mean ± SD): 21 days
  Mean maximum score (mean ± SD): 0.2 ± 0.6
C57BL/6 mice [2]; IP administered TCDD, day 19 after EAE induction
  histopathological signs of EAE (cellular infiltrate, demyelination, axonal loss in spinal cord): reduced the histopathological signs of EAE; also recorded: inhibits CNS inflammation, demyelination and axonal loss
C57BL/6 mice [2]; TCDD 0.01 μg per mouse ip
  Incidence (positive/total): 7/7
  Mean day of onset (Mean ± standard deviation (SD)): 14.1 ± 2.9 days
C57BL/6 mice [2]; TCDD 0.01 μg per mouse ip, EAE score 0-5
  Mean maximum score (mean ± SD): 2.7 ± 0.6
C57BL/6 mice [2]; TCDD 0.1 μg per mouse ip
  Mean day of onset (Mean ± standard deviation (SD)): 17.0 ± 1.2 days
C57BL/6 mice [2]; TCDD 0.1 μg per mouse ip, EAE score 0-5
  Mean maximum score (mean ± SD): 3.1 ± 0.5
C57BL/6 mice [2]; TCDD 1 μg per mouse ip, then MOG35-55/CFA
  Mean day of onset (Mean ± standard deviation (SD)): 21.8 ± 1.5 days
C57BL/6 mice [2]; TCDD 1 μg per mouse ip, then MOG35-55/CFA, EAE score 0-5
  Mean maximum score (mean ± SD): 0.2 ± 0.6
C57BL/6 mice [2]; TCDD 1 μg/mouse ip
  clinical signs of EAE: markedly inhibited the clinical signs of EAE
C57BL/6 mice [2]; TCDD 1 μg/mouse orally, one day before EAE induction
  EAE development: prevented EAE development
C57BL/6 mice [2]; natural Treg depleted with antibodies to CD25 prior to TCDD treatment
  onset of EAE: significant delay in the onset of EAE
[3]; [7]
  frequency of CD4+IFNg+ T cells: decrease in the frequency
  frequency of CD4+IL-17 T cells: decrease in the frequency
[3]; natural Treg depleted with antibodies to CD25 prior to TCDD treatment, day 18
  IL-17+CD4+ T cells in the draining lymph nodes: significant reduction; also recorded: significant decrease in the frequency
AHR
  AHR affinity: high affinity AHR ligand
Myelin specific T cells; [8]
  proliferation of effector CD4+ Foxp3:GFP- T cells to MOG35-55: normal proliferation
  secretion of IFNγ by effector CD4+ Foxp3:GFP- T cells upon activation with MOG35-55: significantly decreased secretion
  secretion of IL-17 by effector CD4+ Foxp3:GFP- T cells upon activation with MOG35-55: significantly decreased secretion
Myelin specific T cells; [9]
  IFNg secretion upon activation with MOG35-55: lower amounts
  IL-17 secretion upon activation with MOG35-55: lower amounts
  TGFb1 secretion upon activation with MOG35-55: higher amounts
Myelin specific T cells; [10]
  proliferative response upon activation with antibodies to CD3: no differences were seen
  recall proliferative response to the MOG35-55 peptide: suppressed recall proliferative response

## COC(=O)c1csc(C(=O)c2c[nH]c3ccccc23)n1 [ITE, 2-(1′H-indole-3′-carbonyl)-thiazole-4-carboxylic acid methyl ester]
C57BL/6 mice [1]; CD4+ T cells from mice treated with oral or intraperitoneal ITE
  protection from EAE by transfer of CD4+ T cells: Protection from EAE could be transferred
C57BL/6 mice [2]; ITE 200 μg/mouse at weekly intervals instead of daily
  protective effects on EAE: complete loss of tis protective effects on EAE; also recorded: fails to suppress EAE development
C57BL/6 mice [2]; [11]
  EAE clinical score: significant reduction of EAE clinical score
  EAE development (delay): significant delay on EAE development
C57BL/6 mice [2]; administered on a daily basis
  EAE severity: significant reduction on EAE severity
[3]; [12]
  frequency of CD4+IFNg+ T cells: decrease in the frequency
  frequency of CD4+IL17+ T cells: decrease in the frequency
AHR
  AHR affinity: high affinity AHR ligands
Myelin specific T cells; [13]
  IFNg secretion upon activation with MOG35-55: lower amounts
  IL2 secretion upon activation with MOG35-55: lower amounts
  IL6 secretion upon activation with MOG35-55: lower amounts
  IL17 secretion upon activation with MOG35-55: lower amounts
  IL-10 secretion upon activation with MOG35-55: higher amounts
  TGFb1 secretion upon activation with MOG35-55: higher amounts
Myelin specific T cells; Foxp3gfp mice, ITE 200 mg/mice intraperitoneal daily
  recall response of purified CD4+ T cells: suppressed response to MOG35-55 but not to anti-CD3
Myelin specific T cells; [14]
  proliferative response upon activation with antibodies to CD3: no differences were seen
  recall proliferative response to the MOG35-55 peptide: suppressed recall proliferative response
Myelin specific T cells; ITE-treated mice
  secretion of IFNg by lymph node cells activated with MOG35-55 or αCD3: significant reduction in the secretion
  secretion of IL-17 by lymph node cells activated with MOG35-55 or αCD3: significant reduction in the secretion
